Source: patent US8552018B2, “Substituted tricyclic compounds as protein kinase inhibitors” (Arizona Board of Regents on behalf of the University of …, priority 2003, dated 2013)

Key:
aurora-2 kinase = target: T1, aurora-2 kinase (Homo sapiens, UniProt O14965); assay: Aurora-2 kinase inhibition assay (Kinase-Glo); format: biochemical; details: aurora-2 kinase, FIG. 11
T1 construct: purchased Imgenex, San Diego, Calif; host or cells: sf9 cells
T1 sequence (O14965 1-403): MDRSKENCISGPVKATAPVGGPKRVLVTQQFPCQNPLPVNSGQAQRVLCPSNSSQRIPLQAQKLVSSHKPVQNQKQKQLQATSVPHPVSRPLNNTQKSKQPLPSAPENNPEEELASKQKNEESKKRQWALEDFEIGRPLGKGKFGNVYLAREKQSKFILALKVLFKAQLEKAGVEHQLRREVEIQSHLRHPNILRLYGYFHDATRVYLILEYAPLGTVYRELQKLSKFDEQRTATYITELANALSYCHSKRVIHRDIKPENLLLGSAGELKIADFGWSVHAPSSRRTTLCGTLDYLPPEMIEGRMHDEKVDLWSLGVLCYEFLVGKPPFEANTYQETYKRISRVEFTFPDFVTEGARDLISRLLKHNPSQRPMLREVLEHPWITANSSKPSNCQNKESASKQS
Protocol: In this assay kinase activity is determined by quantifying the amount of ATP remaining in solution following the kinase reaction by measuring the light units (LU) produced by luciferase using a luminometer. Percent inhibition was determined for individual compounds by comparing luminometer readings of drug-treated reactions to controls containing no drug (DMSO control) and no Aurora-2 enzyme (ATP control) in the following equation: […]
In a 50 μl reaction, recombinant aurora-2 kinase produced in sf9 cells (Imgenex, San Diego, Calif.) was incubated at 30° C. for two hours with 62.5 μM Kemptide (Calbiochem, San Diego, Calif.), 3 μM ATP (Invitrogen, Carlsbad, Calif.) and kinase reaction buffer (40 mM Tris-HCl, 10 mM MgCl2 and 0.1 μg/μl bovine serum albumin (BSA)). This reaction was carried out in the presence of drug substances, which had been previously diluted to desired concentrations in DMSO. After incubation, 50 μl of Kinase-Glo® (Promega, Inc., Madison, Wis.) solution was added to each reaction mixture and allowed to equilibrate for 10 minutes at room temperature. Kinase-Glo solution contains luciferase enzyme and luciferin, which react with ATP to produce light. Kinase activity is determined by quantifying the amount of ATP remaining in solution following the kinase reaction by measuring the light units (LU) produced by luciferase using a luminometer (PerkinElmer, Boston, Mass.).

PANC-1 cells = assay: Cancer cell cytotoxicity assay (sulforhodamine B); format: cell-based; details: Homo sapiens, 96 h; PANC-1, 4 days; read-out: IC50 PDGFR PANC-1
Protocol: (§1) To validate the hypothesis that the designed c-kit/PDGFR tyrosine kinase inhibitors mediate GIST882 cell killing and PDGFR-mediated cell killing of pancreatic cancer cell lines (CFPAC-1, PANC-1 and MIA PaCa-2), an in vitro cytotoxicity assay was performed. The GIST882 cell line used in this study has a c-kit gain-of-function mutation (K642E). The assay utilized the Cell Titer 965 Non-Radioactive Cell Proliferation Assay (Promega Corp., Madison, Wis.). First the cells were cultured. GIST882 cells were provided by Dr. Jonathan A. Fletcher (Dana-Farber Cancer Institute, Boston, Mass.). PANC-1 and MIAPaCa-2 cells were provided by Dr. Daniel Von Hoff (Arizona Cancer Center, Tucson, Ariz.). GIST882 cells were cultured in RPMI 1640 medium (Cat #21870-076, Invitrogen Corporation) supplemented with 300 mg/L L-glutamine, 100 unit/ml penicillin, 100 μg/ml streptomycin and 15% fetal bovine serum. PANC-1 and MIAPaCa-2 cells were maintained in RPMI 1640 medium (cat #10-040, Mediatech, Inc.) supplemented with 100 unit/ml penicillin, 100 μg/ml streptomycin and 10% fetal bovine serum. All the cell lines were incubated in a humidified incubator at 37° C. with 5% CO2 atmosphere.
(§2) Cells were plated at a density of 2000 to 10000 cells per well, depending on their growth rate, in 0.1 mL medium on day 0 in 96-well Falcon microtiter plates (#3072, Becton-Dickinson Labware, Lincoln Park, N.J.). On day 1, 10 μL of serial dilutions of the individual compounds were added to the plates in replicates of 4. After incubation for 4 days at 37° C. in a humidified incubator, the cells were fixed with 10% Trichloroacetic acid solution (Catalog No. 490-10, Sigma). Subsequently, they were labeled with 0.04% Sulforhodamine B (S9012, Sigma) in 1% acetic acid. After multiple washes to remove excess dye, 100 μl of 50 mM Tris solution was added to each well in order to dissolve the dye. The absorbance of each well was read on a plate reader (Wallac Vector^2, PerkinElmer) at the wavelength of 570 nm. Data were expressed as the percentage of survival of control calculated from the absorbance corrected for background absorbance. The surviving percent of cells was determined by dividing the mean absorbance values of the […] by the mean absorbance values of the control and multiplying by 100.

MIAPaCa-2 cells = assay: Cancer cell cytotoxicity assay (sulforhodamine B); format: cell-based; details: Homo sapiens, MIA PaCa-2, 96 h; MIAPaCa-2, 4 days; read-out: IC50 PDGFR MIAPaCa
Protocol: as §1, §2

GIST882 cell line [1] = assay: Cancer cell cytotoxicity assay (sulforhodamine B); format: cell-based; details: for IC50: Homo sapiens, 96 h, GIST882, 4 days, read-out: IC50 c-kit GIST882
Protocol: To validate the hypothesis that the designed c-kit/PDGFR tyrosine kinase inhibitors mediate GIST882 cell killing and PDGFR-mediated cell killing of pancreatic cancer cell lines (CFPAC-1, PANC-1 and MIA PaCa-2), an in vitro cytotoxicity assay was performed. The GIST882 cell line used in this study has a c-kit gain-of-function mutation (K642E). […] First the cells were cultured. GIST882 cells were provided by Dr. Jonathan A. Fletcher (Dana-Farber Cancer Institute, Boston, Mass.). PANC-1 and MIAPaCa-2 cells were provided by Dr. Daniel Von Hoff (Arizona Cancer Center, Tucson, Ariz.). […] All the cell lines were incubated in a humidified incubator at 37° C. with 5% CO2 atmosphere.
as §2, with “After” for “Cells were plated at a density of 2000 to 10000 cells per well, depending on their growth rate, in 0.1 mL medium on day 0 in 96-well Falcon microtiter plates (#3072, Becton-Dickinson Labware, Lincoln Park, N.J.). On day 1, 10 μL of serial dilutions of the individual compounds were added to the plates in replicates of 4. After”

GIST882 cell line [2] = assay: GIST882 cell growth assay (Cell-Titer-Glo); format: cell-based; details: Homo sapiens; GIST882, 96 hours
Protocol: (§3) Briefly, cells are seeded into 96-well, tissue-culture treated, opaque white plates (Thermo Electron, Vantaa, Finland), at between 5000 and 7500 cells per well, depending on the speed of cell proliferation, in 100 μl of appropriate growth medium (determined by the ATCC). Cells are then exposed to the appropriate concentration of drug or an equal amount of DMSO (drug diluent) and allowed to grow in its presence for 96 hours. Following this, 100 μl of Cell-Titer-Glo reagent (Promega, Inc., Madison, Wis.) is added to each well. Plates are then shaken for 2 minutes at room temperature to allow for cell lysis and incubated for 10 minutes to stabilize the luminescent signal. Similar to the Kinase-Glo assay reagent, this reagent contains both luciferase enzyme and its substrate luciferin. Luciferase, activated by ATP in the cell lysate, catalyzes the conversion of luciferin to oxyluciferin, a reaction which produces light. The amount of light produced is proportionate to the amount of ATP in the cell lysate, which is itself proportional to cell number and gives an index of cellular proliferation.
as §3, with “Various compounds of the invention, including (IV-1-3) (also referred to as HPK16), (III-1-3) (also referred to as HPK56), (III-1-4) (also referred to as HPK57), (III-1-5) (also referred to as HPK59), and (II-2-7) (also referred to as HPK61) were tested for activity against GIST tumor cells using the GIST882 cell line. Briefly,” for “Briefly,”

metastatic GISTs = details: 400 mg or 600 mg per day, patients assessed at 1-3 months; cited from earlier work
[3] = test system: Akt phosphorylation in NIH 3T3 cells; assay: Immunoblot for phospho-Akt (S473); format: cell-based; details: NIH 3T3, 4 hours, agent alone
Protocol: (§4) In order to evaluate these effects at the cellular level, immunoblot analysis was performed on lysates from cells treated with MP470, with or without the addition of the EGFR inhibitor Tarceva®. Lysates were assayed for general tyrosine kinase activity, as well as the specific phosphorylation of c-Met and Akt. Briefly, NIH 3T3 cells were pretreated with drugs as indicated for 4 hours, then treated with pervanadate for a further 30 minutes. Immunoblot detection was carried out with antibodies for phosphotyrosine, phospho-Met and phospho-Akt (S473), as well as total c-Met and Akt. Beta-actin was used as a loading control.

[4] = test system: Akt phosphorylation in LNCaP prostate carcinoma cells; assay: Immunoblot for phospho-Akt (S473); format: cell-based; details: 48 hours, agent alone
Protocol: LNCaP prostate carcinoma cells were treated with MP-470, in combinations with Tarceva® and Gleevec®, for 48 hours. Following incubation, cells were lysed and total protein subjected to immunoblot analysis for total Akt and phospho-Akt (S473).

[5] = test system: c-Met autophosphorylation in NIH 3T3 cells; assay: Immunoblot for phospho-Met; format: cell-based; details: NIH 3T3, 4 hours, agent alone
Protocol: as §4, with “MP-470 (Compound III-1-3) has inhibitory effects on a number of receptor tyrosine kinases. In” for “In”

SMILES | IC50 (PANC-1 cells) | IC50 (MIAPaCa-2 cells) | IC50 (GIST882 cell line [1]) | IC50 (GIST882 cell line [2]) | also measured
COc1cc2ncnc(Nc3ncc(NC(=S)NCc4ccc5c(c4)OCO5)cn3)c2cc1OC [AKS110, 1-Benzo[1,3]dioxol-5-yl methyl-3-[2-(6,7-dimethoxy-quinazolin-4ylamino)-pyrimidin-5yl]-thiourea] |  |  |  |  | IC50 (aurora-2 kinase): 36 µM
S=C(NCc1ccc2c(c1)OCO2)N1CCN(c2ncnc3c2sc2ncccc23)CC1 [HPK57, 4-(9-Thia-1,5,7-triaza-fluoren-8-yl)-piperazine-1-carbothioic acid (benzo[1,3]dioxol-5-ylmethyl)-amide] | > 50 µM | > 50 µM | 28 µM | 28 µM | 
O=S(=O)(Nc1ncccn1)c1ccc(NC(=S)N2CCN(c3ncnc4c3oc3ccccc34)CC2)cc1 [HPK59, 4-Benzo[4,5]furo[3,2-d]pyrimidin-4-yl-piperazine-1-carbothioic acid [4-(pyrimidin-2-ylsulfamoyl)-phenyl]-amide] |  |  | 27.5 µM | 27.5 µM | 
O=S(=O)(Nc1ncccn1)c1ccc(NC(=S)N2CCN(c3ncnc4c3sc3ncccc34)CC2)cc1 [HPK60, 4-(9-Thia-1,5,7-triaza-fluoren-8-yl)-piperazine-1-carbothioic acid [4-(pyrimidin-2-ylsulfamoyl)-phenyl]-amide] | > 50 µM | > 50 µM | 50 µM | 50 µM | 
Cc1ccc(NC(=O)c2ccc(CN3CCN(C)CC3)cc2)cc1Nc1nccc(-c2cccnc2)n1 [STI571] |  |  |  |  | cells alive at day 4 (GIST882 cell line [1]; GIST882, day 4): 25%; partial response (metastatic GISTs): 54%; progressive disease (metastatic GISTs): 12%; stable disease (metastatic GISTs): 34%
C#Cc1cccc(Nc2ncnc3cc(OCCOC)c(OCCOC)cc23)c1 [Tarceva®, reference compound] |  |  |  |  | phosphorylation of Akt [3]: Neither of these effects was observed; phosphorylation of Akt [4]: did not appear to have an effect; activating autophosphorylation of c-Met [5]: Neither of these effects was observed
